{
  "source": "patent US12403160B2",
  "about": "“Injection composition containing isolated mitochondria, and use thereof” (Paean Biotechnology Inc., priority 2020, dated 2025)",
  "key": {"platelets": {"test_system": "platelets", "procedure": "After treatment, the resultant was incubated with shaking at 100 rpm at 37° C. for one hour."}, "platelets in the blood": {"test_system": "platelets in the blood", "assay": "Number of platelets in the blood after intravenous injection of mitochondria", "format": "in vivo, BALB/c-nu/nu mice", "conditions": "UC-hMSC mitochondria 50 μg/0.3 mL, single intravenous injection, mice", "procedure": "The specific experimental design, which was performed so as to confirm the effect of reducing the number of platelets during intravascular injection of mitochondria into mice, is as shown in Table 2 below."}, "[1]": {"test_system": "platelets isolated from pig whole blood", "assay": "Effect of storage solvent for mitochondria and antithrombotic agent on platelet aggregation", "format": "cell-based", "procedure": "Pig whole blood was centrifuged at 300×g for 5 minutes to obtain a cloudy yellow supernatant containing platelets and plasma. […] The obtained platelet precipitate was replaced with an equal amount of Dulbecco's phosphate-buffered saline (DPBS) solution, washed by centrifugation at 1,500×g for 15 minutes, and resuspended in an equal amount of a fresh DPBS solution.\nIn order to confirm the effect of a storage solvent for mitochondria and an antithrombotic agent on inhibition of platelet aggregation, the mitochondria of human umbilical cord-derived mesenchymal stem cells (UC-hMSC) were isolated and stored in saline and SHE solution, which is a storage solvent, for one hour, respectively, and the resultant was treated with the platelets isolated from pig whole blood and then treated with heparin. After 1 hour, the result was confirmed with a confocal laser scanning microscope."}},
  "data": [
    {"molecule": "NCC(=O)O", "note": "[glycine]", "values": [
      {"measurement": "glycine concentration at which mitochondria-induced platelet aggregation is inhibited", "setting": "platelets; 1 μg UC-hMSC mitochondria in 10 μL Tris-trehalose buffer with glycine 0-100 mM, 1 mL platelet solution, 37° C., one hour", "value": "≥ 25", "unit": "mM"},
      {"measurement": "inhibition of mitochondria-induced platelet aggregation at low glycine concentration", "setting": "platelets; low concentration of glycine in Tris-trehalose buffer", "value": "could not inhibit platelet aggregation"}
    ]},
    {"molecule": "heparin", "values": [
      {"measurement": "change in the number of platelets in the blood", "setting": "platelets in the blood", "value": "recovered to some extent, but the decrease in platelets was not completely inhibited"},
      {"measurement": "inhibition of mitochondria-induced platelet aggregation with rising concentration of antithrombotic agent", "setting": "[1]; UC-hMSC mitochondria stored in SHE solution", "value": "inhibited as the concentrations of heparin as an antithrombotic agent increased"},
      {"measurement": "inhibition of mitochondria-induced platelet aggregation by antithrombotic agent", "setting": "[1]; UC-hMSC mitochondria stored in saline and SHE solution, pig platelets", "value": "partially inhibited"}
    ]}
  ]
}
